Measured values as given in patent US9745310B2 (SK BIOPHARMACEUTICALS CO., LTD., priority 2015, dated 2017).
pEC50: −log10 of the molar value.

Biological target: human mGluR5 receptor (Homo sapiens (Human), UniProt P41594)
Test: Calcium influx assay based on fluorescence (mGluR5 PAM activity)
Details: human mGluR5 receptor-overexpressed HEK293 cell line; L-glutamate EC20; Fluo-4, FLIPR
Experimental: Efficacy as a positive allosteric modulator (PAM) of mGluR5 of the compounds of the Examples was tested as follows:
Calcium Influx Assay Based on Fluorescence
Ca^2+ (calcium) influx assay is an experiment for measuring the activity of a positive allosteric modulator of mGluR5 receptor in which human mGluR5 receptor-overexpressed HEK293 cell line is used. The day before the experiment, cells were prepared in a cell culture medium (DMEM, 5% FBS) with the density of 80,000/well, and 100 μl of cells were dispensed into each well of a poly-D-lysine-coated 96-well plate. Cells were incubated in a 5% CO2, 37° C. incubator. The next day, the cell culture medium was removed from the plate, and 100 μl of 1× Fluo-4 calcium indicator diluted with a buffer (1× Hank's balanced salt solution, 20 mM HEPES, 2.5 mM probenecid) were added to each well and incubated at 37° C. for 1 hour. The compound stock solutions were prepared in 100% DMSO, and the compounds were serially diluted with a ¼ dilution to 6 or 7 concentrations (final concentration was 10 μM to 10 nM). The diluted compound solutions were added to the plate with 0.1 to 0.2% of final DMSO concentration. 1 hour after the addition of Fluo-4 calcium indicator, L-glutamate (EC20 concentration) and the test compound solutions were added to the plate, and Ca^2+ reaction was then measured by FLIPR at room temperature. The activity of the compounds was standardized on the basis of the results of maximum value-minimum value of fluorescent reaction, and the activity value was calculated on the basis that no activity on glutamate EC20 is 0% and the reaction to glutamate maximum value is 100%.

Chain of human mGluR5 receptor (P41594 21-1212): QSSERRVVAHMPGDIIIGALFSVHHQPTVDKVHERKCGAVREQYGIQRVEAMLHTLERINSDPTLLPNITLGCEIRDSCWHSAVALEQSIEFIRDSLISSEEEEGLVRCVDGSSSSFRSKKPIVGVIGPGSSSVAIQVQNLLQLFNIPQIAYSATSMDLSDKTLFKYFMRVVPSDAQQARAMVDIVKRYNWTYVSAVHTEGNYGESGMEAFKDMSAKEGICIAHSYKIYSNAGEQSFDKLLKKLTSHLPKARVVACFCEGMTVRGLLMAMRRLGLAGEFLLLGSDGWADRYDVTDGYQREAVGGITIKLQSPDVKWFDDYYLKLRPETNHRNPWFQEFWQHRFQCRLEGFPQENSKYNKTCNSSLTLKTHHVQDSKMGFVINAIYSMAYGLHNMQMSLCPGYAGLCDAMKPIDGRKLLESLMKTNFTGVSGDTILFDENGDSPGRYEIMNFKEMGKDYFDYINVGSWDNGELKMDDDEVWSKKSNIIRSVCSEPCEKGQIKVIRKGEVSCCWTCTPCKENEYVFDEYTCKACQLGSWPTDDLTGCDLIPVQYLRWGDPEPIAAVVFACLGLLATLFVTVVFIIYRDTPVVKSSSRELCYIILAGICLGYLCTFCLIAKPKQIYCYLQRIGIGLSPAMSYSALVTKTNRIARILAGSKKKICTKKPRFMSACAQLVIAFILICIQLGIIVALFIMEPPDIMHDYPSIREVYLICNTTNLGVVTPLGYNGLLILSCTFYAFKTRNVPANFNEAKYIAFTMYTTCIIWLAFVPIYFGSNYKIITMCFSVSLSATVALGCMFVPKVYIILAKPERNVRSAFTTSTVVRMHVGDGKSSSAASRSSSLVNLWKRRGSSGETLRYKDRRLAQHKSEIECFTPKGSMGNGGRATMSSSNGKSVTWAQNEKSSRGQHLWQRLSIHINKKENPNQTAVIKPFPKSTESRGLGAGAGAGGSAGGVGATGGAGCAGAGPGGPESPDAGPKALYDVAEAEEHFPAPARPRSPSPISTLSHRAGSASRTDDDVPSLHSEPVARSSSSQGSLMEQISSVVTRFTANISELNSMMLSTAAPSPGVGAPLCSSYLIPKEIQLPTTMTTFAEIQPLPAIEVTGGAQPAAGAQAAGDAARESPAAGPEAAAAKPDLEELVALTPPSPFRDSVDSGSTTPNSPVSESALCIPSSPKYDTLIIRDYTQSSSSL

**Q.** `c1ccc(OCc2cn3cc(-c4ccccc4)cnc3n2)cc1` [Example 2, 2-phenoxymethyl-6-phenylimidazo[1,2-a]pyrimidine] was tested. Which pEC50 did it give?
**A.** Its pEC50 is 6.30 to 7.00.

**Q.** `COc1cc(C#N)ccc1-c1cnc2nc(COc3ccccn3)cn2c1` [Example 136, 3-methoxy-4-[2-(2-pyridyloxymethyl)imidazo[1,2-a]pyrimidin-6-yl]benzonitrile] was tested. Which pEC50 did it give?
**A.** The pEC50 was 6.00 to 6.30.

**Q.** `Cc1ccc(N)cc1-c1cnc2nc(COc3ccccc3)cn2c1` [Example 11, 6-(3-amino-6-methylphenyl)-2-phenoxymethylimidazo[1,2-a]pyrimidine] was tested. Which pEC50 did it give?
**A.** The pEC50 was 6.30 to 7.00.

**Q.** `Cc1ccccc1-c1cnc2nc(COc3ccc(F)cn3)cn2c1` [Example 126, 2-[(5-fluoro-2-pyridyl)oxymethyl]-6-(o-tolyl)imidazo[1,2-a]pyrimidine] was tested. Which pEC50 did it give?
**A.** Its pEC50 is 6.30 to 7.00.

**Q.** With `Oc1cc(F)ccc1-c1cnc2nc(COc3cccnc3)cn2c1` [Example 150, 6-(4-fluoro-2-hydroxyphenyl)-2-(pyridin-3-yloxymethyl)imidazo[1,2-a]pyrimidine] as the molecule, how does the pEC50 read?
**A.** Its pEC50 is 6.00 to 6.30.

**Q.** With `OCc1cc(F)ccc1-c1cnc2nc(COc3cncc(F)c3)cn2c1` [Example 177, [5-fluoro-2-[2-[(5-fluoro-3-pyridyl)oxymethyl]imidazo[1,2-a]pyrimidin-6-yl]phenyl]methanol] as the molecule, how does the pEC50 read?
**A.** Its pEC50 is 6.00 to 6.30.

**Q.** With `Cc1cc(Cl)ccc1-c1cnc2nc(COc3ccc(F)cn3)cn2c1` [Example 127, 6-(4-chloro-2-methyl-phenyl)-2-[(5-fluoro-2-pyridyl)oxymethyl)imidazo[1,2-a]pyrimidine] as the molecule, how does the pEC50 read?
**A.** Its pEC50 is 6.30 to 7.00.

**Q.** `Nc1cc(F)ccc1-c1cnc2nc(COc3cncc(F)c3)cn2c1` [Example 175, 5-fluoro-2-[2-[(5-fluoro-3-pyridyl)oxymethyl]imidazo[1,2-a]pyrimidin-6-yl]aniline] was tested. Which pEC50 did it give?
**A.** The pEC50 was 6.00 to 6.30.

**Q.** `Nc1cc(-c2cnc3nc(COc4ccc(F)cc4)cn3c2)ccc1F` [Example 70, 2-fluoro-5-[2-[(4-fluorophenoxy)methyl]imidazo[1,2-a]pyrimidin-6-yl]aniline] was tested. Which pEC50 did it give?
**A.** The pEC50 was 6.30 to 7.00.

**Q.** With `COc1cncc(-c2cnc3nc(COc4ccc(F)cc4)cn3c2)c1` [Example 89, 2-[(4-fluorophenoxy)methyl]-6-(5-methoxy-3-pyridyl)imidazo[1,2-a]pyrimidine] as the molecule, how does the pEC50 read?
**A.** The pEC50 was 6.00 to 6.30.

**Q.** `Fc1ccc(OCc2cn3cc(-c4ccc(F)nc4)cnc3n2)cc1` [Example 51, 2-[(4-fluorophenoxy)methyl]-6-(6-fluoro-3-pyridyl)imidazo[1,2-a]pyrimidine] was tested. Which pEC50 did it give?
**A.** Its pEC50 is 6.30 to 7.00.

**Q.** `Cc1ccncc1-c1cnc2nc(COc3ccc(F)cc3)cn2c1` [Example 78, 2-[(4-fluorophenoxy)methyl]-6-(4-methyl-3-pyridyl)imidazo[1,2-a]pyrimidine] was tested. Which pEC50 did it give?
**A.** The pEC50 was 6.30 to 7.00.

**Q.** `Fc1ccc(OCc2cn3cc(-c4ccc(F)cn4)cnc3n2)cc1` [Example 85, 2-[(4-fluorophenoxy)methyl]-6-(5-fluoro-2-pyridyl)imidazo[1,2-a]pyrimidine] was tested. Which pEC50 did it give?
**A.** The pEC50 was 6.30 to 7.00.

**Q.** How did the pEC50 turn out when `NC(=O)OCc1cc(F)ccc1-c1cnc2nc(COc3ccccc3)cn2c1` [Example 194, [5-fluoro-2-[2-(phenoxymethyl)imidazo[1,2-a]pyrimidin-6-yl]phenyl]methyl carbamate] was run?
**A.** The pEC50 was 6.30 to 7.00.

**Q.** How did the pEC50 turn out when `CSc1cc(F)ccc1-c1cnc2nc(COc3ccccc3)cn2c1` [Example 26, 6-(4-fluoro-2-methylthiophenyl)-2-phenoxymethylimidazo[1,2-a]pyrimidine] was run?
**A.** Its pEC50 is 6.30 to 7.00.

**Q.** `COc1cc(F)ccc1-c1cnc2nc(COc3cncc(F)c3)cn2c1` [Example 155, 6-(4-fluoro-2-methoxyphenyl)-2-(5-fluoropyridin-3-yloxymethyl)imidazo[1,2-a]pyrimidine] was tested. Which pEC50 did it give?
**A.** Its pEC50 is 6.30 to 7.00.

**Q.** With `Nc1cc(-c2cnc3nc(COc4ccccc4)cn3c2)ccc1F` [Example 12, 6-(3-amino-4-fluorophenyl)-2-phenoxymethylimidazo[1,2-a]pyrimidine] as the molecule, how does the pEC50 read?
**A.** The pEC50 was 6.00 to 6.30.

**Q.** With `Cc1ccc(F)cc1-c1cnc2nc(COc3ccc(F)cc3)cn2c1` [Example 61, 6-(5-fluoro-2-methyl-phenyl)-2-[(4-fluorophenoxy)methyl]imidazo[1,2-a]pyrimidine] as the molecule, how does the pEC50 read?
**A.** The pEC50 was 6.00 to 6.30.

**Q.** `Fc1ccc(-c2cnc3nc(COc4cccnc4)cn3c2)cc1` [Example 146, 6-(4-fluorophenyl)-2-(pyridin-3-yloxymethyl)imidazo[1,2-a]pyrimidine] was tested. Which pEC50 did it give?
**A.** The pEC50 was 6.00 to 6.30.

**Q.** `OCc1cc(F)ccc1-c1cnc2nc(COc3ccccn3)cn2c1` [Example 135, [5-fluoro-2-[2-(2-pyridyloxymethyl)imidazo[1,2-a]pyrimidin-6-yl]phenyl]methanol] was tested. Which pEC50 did it give?
**A.** The pEC50 was 6.30 to 7.00.

**Q.** With `Cc1cc(F)ccc1-c1cnc2nc(COc3cncc(F)c3)cn2c1` [Example 154, 6-(4-fluoro-2-methylphenyl)-2-(5-fluoro-pyridin-3-yloxymethyl)imidazo[1,2-a]pyrimidine] as the molecule, how does the pEC50 read?
**A.** The pEC50 was 6.30 to 7.00.

**Q.** With `Fc1ccc(-c2cnc3nc(COc4ccnc(F)c4)cn3c2)cc1` [Example 164, 6-(4-fluorophenyl)-2-(2-fluoropyridin-4-yloxymethyl)imidazo[1,2-a]pyrimidine] as the molecule, how does the pEC50 read?
**A.** Its pEC50 is 6.30 to 7.00.

**Q.** `Fc1ccc(-c2cnc3nc(COc4ccccn4)cn3c2)c(F)c1` [Example 105, 6-(2,4-difluorophenyl)-2-(pyridin-2-yloxymethyl)imidazo[1,2-a]pyrimidine] was tested. Which pEC50 did it give?
**A.** The pEC50 was 6.30 to 7.00.

**Q.** With `CC(=O)OCc1cc(F)ccc1-c1cnc2nc(COc3ccccn3)cn2c1` [Example 196, [5-fluoro-2-[2-(2-pyridyloxymethyl)imidazo[1,2-a]pyrimidin-6-yl]phenyl]methyl acetate] as the molecule, how does the pEC50 read?
**A.** Its pEC50 is 6.30 to 7.00.

**Q.** How did the pEC50 turn out when `Nc1cc(Cl)ccc1-c1cnc2nc(COc3ccc(F)cc3)cn2c1` [Example 75, 5-chloro-2-[2-[(4-fluorophenoxy)methyl]imidazo[1,2-a]pyrimidin-6-yl]aniline] was run?
**A.** The pEC50 was 6.30 to 7.00.

**Q.** With `Fc1cc(-c2cnc3nc(COc4ccccc4)cn3c2)ccn1` [Example 35, 6-(2-fluoropyridin-4-yl)-2-phenoxymethylimidazo[1,2-a]pyrimidine] as the molecule, how does the pEC50 read?
**A.** Its pEC50 is 6.30 to 7.00.

**Q.** With `Clc1ccc(-c2cnc3nc(COc4ccccc4)cn3c2)cc1` [Example 37, 6-(4-chlorophenyl)-2-phenoxymethylimidazo[1,2-a]pyrimidine] as the molecule, how does the pEC50 read?
**A.** The pEC50 was 6.00 to 6.30.

**Q.** With `Cc1cc(F)ccc1-c1cnc2nc(COc3ccc(F)cn3)cn2n1` [Example 192, 2-(4-fluoro-2-methyl-phenyl)-6-[(5-fluoro-2-pyridyl)oxymethyl]imidazo[1,2-b][1,2,4]triazine] as the molecule, how does the pEC50 read?
**A.** The pEC50 was 6.30 to 7.00.

**Q.** With `Fc1ccc(-c2cnc3nc(COc4ccccc4)cn3c2)nc1` [Example 40, 6-(5-fluoro-2-pyridyl)-2-phenoxymethylimidazo[1,2-a]pyrimidine] as the molecule, how does the pEC50 read?
**A.** The pEC50 was 6.30 to 7.00.

**Q.** With `Nc1ccccc1-c1cnc2nc(COc3ccc(F)cc3)cn2c1` [Example 66, 2-[2-[(4-fluorophenoxy)methyl]imidazo[1,2-a]pyrimidin-6-yl]aniline] as the molecule, how does the pEC50 read?
**A.** The pEC50 was 6.30 to 7.00.

**Q.** `Fc1ccc(-c2cnc3nc(COc4ccccn4)cn3n2)c(F)c1` [Example 180, 2-(2,4-difluorophenyl)-6-((pyridin-2-yloxy)methyl)imidazo[1,2-b][1,2,4]triazine] was tested. Which pEC50 did it give?
**A.** The pEC50 was 6.30 to 7.00.

**Q.** `CC(C)c1ccccc1-c1cnc2nc(COc3ccccn3)cn2c1` [Example 143, 6-(2-isopropylphenyl)-2-(2-pyridyloxymethyl)imidazo[1,2-a]pyrimidine] was tested. Which pEC50 did it give?
**A.** Its pEC50 is 6.00 to 6.30.

**Q.** `Fc1ccc(-c2cnc3nc(COc4ccccc4)cn3c2)c2c1OCO2` [Example 24, 6-(7-fluorobenzo[1,3]dioxol-4-yl)-2-phenoxymethylimidazo[1,2-a]pyrimidine] was tested. Which pEC50 did it give?
**A.** The pEC50 was 6.30 to 7.00.
